Experimental data as given in US20250129012A1, “ANTI-INFLAMMATORY AND ANALGESIC COMPOUNDS AND USE THEREOF” (JIANGSU ATOM BIOSCIENCE AND PHARMACEUTICAL CO., LTD., priority 2021, published 2025).

Assays:
[1] = system: gouty arthritis in rats (urate crystals, left ankle joint); assay: Pharmacodynamics experiment A on gouty arthritis in rats: gait score; assay type: in vivo, SD rats; parameters: Gait Score: scale not given here; conditions: 0.6 mg/kg gavage; for Gait Score: Mean ± SEM
Procedure: (§1) Compounds 2, 17, 26 and 27 were prepared by grinding with 0.5% CMC-Na into a suspension of the corresponding concentration (0.06 mg/mL) for gavage before administration, and the volume of administration was 10 mL/kg. […] Before use, 0.5% CMC-Na was used for grinding and prepared into a suspension of the corresponding concentration (0.06 mg/mL) for gavage, and the volume of drug administered was 10 mL/kg.
(§2) Each group of subjects was prepared into a suspension of the corresponding concentration, and the administration volume was 10 mL/kg.
(§3) The crystalline arthritis model was prepared by intra-articular injection of urate crystals (40 mg/mL, in the left ankle joint of each rat). Different doses of the test drug were given separately by gavage administration. The day of administration was defined as day 1 of the experiment, and the drug was administered once a day for 10 consecutive days (pre-administration of the drug for 7 days prior to modeling, modeling on day 8, and continuation of the drug for 3 days). The experiment ended on day 10.
The degree of lameness of the modeled joints was observed and scored at the same time point.
(§4) The data obtained from the experiment were statistically analyzed using IBM SPSS Statistics 22.0. All measurements were expressed as Mean±S.E.M s. The data were analyzed using SPSS 22.0 statistical software and variance chi-square test was performed on the parameters.

[2] = Acute toxicity test in mice by single administration; assay type: in vivo, ICR mice; conditions: both sexes, ICR, mouse, in vivo, po; acute toxicity, mice, single gavage; read-out: Maximum tolerated dose (MTD)
Procedure: (§5) Compounds 34, 48, 55 and 58 were ground with 0.5% CMC-Na before administration, and prepared into a suspension of the corresponding concentration for gavage, with an administration volume of 0.1 mL/10 g.
(§6) ICR mice, SPF grade, weighing 18-20 g, 6-8 weeks old, were provided by Nantong University. The Laboratory Animal Production License was SCXK (Su) 2016-0010 and Laboratory Animal Use License was SYXK (Su) 2017-0035.
(§7) After overnight fasting, the drug was administered once by gavage in a volume of 0.1 mL/10 g. The normal group was given the corresponding volume of 0.5% CMC-Na solution according to body weight. The state of the animal was observed after administration, the animals were weighed daily and the number of deaths was recorded for 14 consecutive days.

ICR mice = assay: as above; assay type: in vivo; conditions: single gavage dose 50 mg/kg; 14 days; deaths/animals
Procedure: as §5, §6, §7

[3] = system: gouty arthritis in rats (urate crystals, left ankle joint); assay: Pharmacodynamics experiment A on gouty arthritis in rats: pain score; assay type: in vivo, SD rats; parameters: Pain score: scale not given here; conditions: 0.6 mg/kg gavage; for Pain score: Mean ± SEM
Procedure: as §1, §2, §3
The pain level was scored using the flexion and extension joint pain test scoring method at the same time point.
as §4

[4] = time points after modeling, P<0.05 or P<0.01

**Q.** Which “Gait versus model group, in words” value [1, 4] does the source give for `COc1cc2c(c(OC)c1OC)-c1ccc(OC)c(=O)cc1[C@@H](NC(C)=O)CC2` [colchicine, reference compound] here?
**A.** improved the gait of rats at 2 h, 24 h, and 48 h after modeling

**Q.** And the Gait Score ([1]; 2 h after modeling)?
**A.** 1.10 ± 0.10

**Q.** And the Gait Score ([1]; 4 h after modeling)?
**A.** 1.10 ± 0.10

**Q.** And the Gait Score ([1]; 8 h after modeling)?
**A.** 1.30 ± 0.15

**Q.** What about the Gait Score ([1]; 10 h after modeling) of the same molecule?
**A.** 1.30 ± 0.21

**Q.** And the Gait Score ([1]; 24 h after modeling)?
**A.** 1.00 ± 0.00

**Q.** What about the Gait Score ([1]; 48 h after modeling) of the same molecule?
**A.** 1.00 ± 0.00

**Q.** What about the Gait Score ([1]; before modeling) of the same molecule?
**A.** 0.00 ± 0.00

**Q.** What about the MTD at 14 days [2] of the same molecule?
**A.** < 50 mg/kg

**Q.** And the Mortality rate (ICR mice)?
**A.** 3/6

**Q.** And the “Pain versus model group, in words” value [3, 4]?
**A.** improved the pain at 2 h, 8 h, 24 h, and 48 h

**Q.** What about the Pain score ([3]; 2 h after modeling) of the same molecule?
**A.** 3.30 ± 0.60

**Q.** What about the Pain score ([3]; 4 h after modeling) of the same molecule?
**A.** 2.90 ± 0.71

**Q.** What about the Pain score ([3]; 8 h after modeling) of the same molecule?
**A.** 3.20 ± 0.61

**Q.** And the Pain score ([3]; 10 h after modeling)?
**A.** 2.60 ± 0.70

**Q.** And the Pain score ([3]; 24 h after modeling)?
**A.** 1.40 ± 0.58

**Q.** And the Pain score ([3]; 48 h after modeling)?
**A.** 0.80 ± 0.44

**Q.** And the Pain score ([3]; before modeling)?
**A.** 0.00 ± 0.00
